Measured values as given in ChEMBL document CHEMBL3272329, “Stereochemical analogs of a muscarinic, ganglionic stimulant. 2. Cis and trans olefinic, epoxide, and cyclopropane analogs related to 4-[N-(3-chlorophenyl)carbamoyloxy]-2-butynyltrimethylammonium chloride (McN-A-343)” (1976).
The source made the active and inactive calls. No cut-off for these calls is given here.

Columns and labels:
Felis catus [1] = assay: Induction of ganglion stimulating activity in iv dosed cat assessed as slight increase in blood pressure administered at 300 ug/kg, iv by […]; format: functional, organism-based
Felis catus [2] = assay: Induction of ganglion stimulating activity in cat assessed as increase in blood pressure at 1 to 300 ug/kg, iv by […]; format: functional
Oryctolagus cuniculus [3] = organism: Oryctolagus cuniculus; assay: Agonist activity at muscarinic receptor in rabbit ileum assessed as […]; format: tissue-based
Oryctolagus cuniculus [4] = organism: Oryctolagus cuniculus; assay: Agonist activity at muscarinic receptor in rabbit ileum assessed as […] relative to acetylcholine; format: tissue-based

Structure (SMILES)	Activity (Oryctolagus cuniculus [3])	Activity (Felis catus [2])	also measured
C[N+](C)(C)C/C=C\COC(=O)Nc1ccc(Cl)cc1.[I-]	inactive	–	Activity (Felis catus [1]): Active; fold change (FC) (Felis catus [2]): 3
C[N+](C)(C)C[C@H]1O[C@@H]1COC(=O)Nc1ccc(Cl)cc1 (relative stereo)	inactive	Active	–
CN(C)C[C@@H]1C[C@@H]1CO (relative stereo)	inactive	–	–
C[N+](C)(C)C[C@H]1O[C@H]1COC(=O)Nc1ccc(Cl)cc1 (relative stereo)	inactive	Active	–
C[N+](C)(C)CC#CCOC(=O)Nc1ccc(Cl)cc1	–	Active	–
C[N+](C)(C)CC#CCOC(=O)Nc1cccc(Cl)c1	–	Active	–
C[N+](C)(C)C/C=C/COC(=O)Nc1ccc(Cl)cc1.[I-]	–	–	Activity (Oryctolagus cuniculus [4]): 1%; fold change (FC) (Felis catus [2]): 3
CN(C)C[C@H]1C[C@@H]1CO (relative stereo)	inactive	–	–
C[N+](C)(C)C/C=C/COC(=O)Nc1cccc(Cl)c1	–	–	Activity (Felis catus [1]): Active
C[N+](C)(C)C[C@H]1C[C@H]1COC(=O)Nc1ccc(Cl)cc1 (relative stereo)	–	inactive	–
C[N+](C)(C)C[C@@H]1C[C@H]1COC(=O)Nc1ccc(Cl)cc1	–	inactive	–
